Reference: US9850256B2, “Antibacterial basic biaromatic derivatives with aminoalkoxy substitution” (priority 2014, dated 2017)
Converted amounts (≈) assume the structure as drawn.

Assays:
Experiment in all cases: Bacterial growth minimal inhibitory concentration (microdilution, cation-adjusted Mueller-Hinton Broth)
S. aureus A798 = assay type: cell-based, Staphylococcus aureus; conditions: Staphylococcus aureus, A798; multiply-resistant strain (methicillin- and quinolone-resistant)
Method in brief: (§1)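 Broth microdilution in cation-adjusted Mueller-Hinton Broth per CLSI M7-A7; MICs in mg/L. S. aureus A798 is methicillin- and quinolone-resistant, K. pneumoniae T6474 penicillin-, cephalosporin- and quinolone-resistant; E. coli ATCC25922 and P. aeruginosa ATCC 27853 are quinolone-sensitive.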

E. coli ATCC25922 = assay type: cell-based; conditions: Escherichia coli, ATCC25922; quinolone-sensitive strain
Method in brief: as §1

K. pneumoniae T6474 = assay type: cell-based, Klebsiella pneumoniae; conditions: Klebsiella pneumoniae, T6474; multiply-resistant strain (penicillin-, cephalosporin- and quinolone-resistant)
Method in brief: as §1

P. aeruginosa ATCC 27853 = assay type: cell-based, Pseudomonas aeruginosa; conditions: Pseudomonas aeruginosa, ATCC27853; quinolone-sensitive strain
Method in brief: as §1

O=C1COc2ccc(N3C[C@H](CCNCc4cccc(-c5cccc(OC[C@H]6CCCN6)n5)c4)OC3=O)nc2N1 [Example $132, 6-[(S)-2-oxo-5-(2-{3-[6-((R)-1-pyrrolidin-2-ylmethoxy)-pyridin-2-yl]-benzylamino}-ethyl)-oxazolidin-3-yl]-4H-pyrido[3,2-b][1,4]oxazin-3-one]
MIC (S. aureus A798): 0.25 µg/mL (≈ 0.459 µM)
MIC (E. coli ATCC25922): 0.5 µg/mL (≈ 0.918 µM)
MIC (K. pneumoniae T6474): 1 µg/mL (≈ 1.84 µM)
MIC (P. aeruginosa ATCC 27853): 0.5 µg/mL (≈ 0.918 µM)

O=C1COc2ccc(N3C[C@H](CCNCc4cccc(-c5cccc(OC[C@@H]6CCCN6)n5)c4)OC3=O)nc2N1 [Example $133, 6-[(S)-2-oxo-5-(2-{3-[6-((S)-1-pyrrolidin-2-ylmethoxy)-pyridin-2-yl]-benzylamino}-ethyl)-oxazolidin-3-yl]-4H-pyrido[3,2-b][1,4]oxazin-3-one]
MIC (S. aureus A798): 1 µg/mL (≈ 1.84 µM)
MIC (E. coli ATCC25922): 1 µg/mL (≈ 1.84 µM)
MIC (K. pneumoniae T6474): 2 µg/mL (≈ 3.67 µM)
MIC (P. aeruginosa ATCC 27853): 0.5 µg/mL (≈ 0.918 µM)

COc1cc(O[C@H]2CCN(C)C2)nc(-c2cccc(CNCC[C@H]3CN(c4ccc5c(n4)NC(=O)CO5)C(=O)O3)c2)c1 [Example $136, 6-[(S)-5-(2-{3-[4-methoxy-6-((S)-1-methyl-pyrrolidin-3-yloxy)-pyridin-2-yl]-benzylamino}-ethyl)-2-oxo-oxazolidin-3-yl]-4H-pyrido[3,2-b][1,4]oxazin-3-one]
MIC (S. aureus A798): 0.25 µg/mL (≈ 0.435 µM)
MIC (E. coli ATCC25922): 1 µg/mL (≈ 1.74 µM)
MIC (K. pneumoniae T6474): 2 µg/mL (≈ 3.48 µM)
MIC (P. aeruginosa ATCC 27853): 2 µg/mL (≈ 3.48 µM)

CN1CC[C@H](Oc2ccnc(-c3cccc(CNCC[C@H]4CN(c5ccc6c(n5)NC(=O)CO6)C(=O)O4)c3)n2)C1 [Example $137, 6-[(S)-5-(2-{3-[4-((S)-1-methyl-pyrrolidin-3-yloxy)-pyrimidin-2-yl]-benzylamino}-ethyl)-2-oxo-oxazolidin-3-yl]-4H-pyrido[3,2-b][1,4]oxazin-3-one]
MIC (S. aureus A798): 0.5 µg/mL (≈ 0.916 µM)
MIC (E. coli ATCC25922): 1 µg/mL (≈ 1.83 µM)
MIC (K. pneumoniae T6474): 1 µg/mL (≈ 1.83 µM)
MIC (P. aeruginosa ATCC 27853): 1 µg/mL (≈ 1.83 µM)

CN1CC[C@H](Oc2cccc(-c3cncc(CNCC[C@H]4CN(c5ccc6c(n5)NC(=O)CO6)C(=O)O4)c3)n2)C1 [Example $138, 6-[(S)-5-(2-{[6-((S)-1-methyl-pyrrolidin-3-yloxy)-[2,3′]bipyridinyl-5′-ylmethyl]-amino}-ethyl)-2-oxo-oxazolidin-3-yl]-4H-pyrido[3,2-b][1,4]oxazin-3-one]
MIC (S. aureus A798): 2 µg/mL (≈ 3.67 µM)
MIC (E. coli ATCC25922): 1 µg/mL (≈ 1.83 µM)
MIC (K. pneumoniae T6474): 2 µg/mL (≈ 3.67 µM)
MIC (P. aeruginosa ATCC 27853): 2 µg/mL (≈ 3.67 µM)

CN1CC[C@H](Oc2cccc(-c3cc(CNCC[C@H]4CN(c5ccc6c(n5)NC(=O)CO6)C(=O)O4)ccn3)n2)C1 [Example $139, 6-[(S)-5-(2-{[6′-((S)-1-methyl-pyrrolidin-3-yloxy)-[2,2′]bipyridinyl-4-ylmethyl]-amino}-ethyl)-2-oxo-oxazolidin-3-yl]-4H-pyrido[3,2-b][1,4]oxazin-3-one]
MIC (S. aureus A798): 0.25 µg/mL (≈ 0.458 µM)
MIC (E. coli ATCC25922): 1 µg/mL (≈ 1.83 µM)
MIC (K. pneumoniae T6474): 1 µg/mL (≈ 1.83 µM)
MIC (P. aeruginosa ATCC 27853): 2 µg/mL (≈ 3.67 µM)

CN1CC[C@@H](COc2cccc(-c3cccc(CNCC[C@H]4CN(c5ccc6c(n5)NC(=O)CO6)C(=O)O4)c3)n2)C1 [Example $140, 6-[(S)-5-(2-{3-[6-((R)-1-methyl-pyrrolidin-3-ylmethoxy)-pyridin-2-yl]-benzylamino}-ethyl)-2-oxo-oxazolidin-3-yl]-4H-pyrido[3,2-b][1,4]oxazin-3-one]
MIC (S. aureus A798): 0.5 µg/mL (≈ 0.895 µM)
MIC (E. coli ATCC25922): 2 µg/mL (≈ 3.58 µM)
MIC (K. pneumoniae T6474): 2 µg/mL (≈ 3.58 µM)
MIC (P. aeruginosa ATCC 27853): 2 µg/mL (≈ 3.58 µM)

CN1CC[C@H](COc2cccc(-c3cccc(CNCC[C@H]4CN(c5ccc6c(n5)NC(=O)CO6)C(=O)O4)c3)n2)C1 [Example $141, 6-[(S)-5-(2-{3-[6-((S)-1-methyl-pyrrolidin-3-ylmethoxy)-pyridin-2-yl]-benzylamino}-ethyl)-2-oxo-oxazolidin-3-yl]-4H-pyrido[3,2-b][1,4]oxazin-3-one]
MIC (S. aureus A798): 0.5 µg/mL (≈ 0.895 µM)
MIC (E. coli ATCC25922): 2 µg/mL (≈ 3.58 µM)
MIC (K. pneumoniae T6474): 2 µg/mL (≈ 3.58 µM)
MIC (P. aeruginosa ATCC 27853): 2 µg/mL (≈ 3.58 µM)

O=C1COc2ccc(N3C[C@H](CCNCc4cccc(-c5cccc(OC[C@@H]6CCNC6)n5)c4)OC3=O)nc2N1 [Example $143, 6-[(S)-2-oxo-5-(2-{3-[6-((R)-1-pyrrolidin-3-ylmethoxy)-pyridin-2-yl]-benzylamino}-ethyl)-oxazolidin-3-yl]-4H-pyrido[3,2-b][1,4]oxazin-3-one]
MIC (S. aureus A798): 2 µg/mL (≈ 3.67 µM)
MIC (E. coli ATCC25922): 2 µg/mL (≈ 3.67 µM)
MIC (K. pneumoniae T6474): 4 µg/mL (≈ 7.34 µM)
MIC (P. aeruginosa ATCC 27853): 1 µg/mL (≈ 1.84 µM)

O=C1COc2ccc(N3C[C@H](CCNCc4cccc(-c5cccc(OC[C@H]6CCNC6)n5)c4)OC3=O)nc2N1 [Example $144, 6-[(S)-2-oxo-5-(2-{3-[6-((S)-1-pyrrolidin-3-ylmethoxy)-pyridin-2-yl]-benzylamino}-ethyl)-oxazolidin-3-yl]-4H-pyrido[3,2-b][1,4]oxazin-3-one]
MIC (S. aureus A798): 2 µg/mL (≈ 3.67 µM)
MIC (E. coli ATCC25922): 4 µg/mL (≈ 7.34 µM)
MIC (K. pneumoniae T6474): 4 µg/mL (≈ 7.34 µM)
MIC (P. aeruginosa ATCC 27853): 1 µg/mL (≈ 1.84 µM)

CN1CC[C@H](Oc2cncc(-c3cccc(CNCC[C@H]4CN(c5ccc6c(n5)NC(=O)CO6)C(=O)O4)n3)n2)C1 [Example $145, 6-{(S)-5-[2-({6-[6-((S)-1-methyl-pyrrolidin-3-yloxy)-pyrazin-2-yl]-pyridin-2-ylmethyl}-amino)-ethyl]-2-oxo-oxazolidin-3-yl}-4H-pyrido[3,2-b][1,4]oxazin-3-one]
MIC (S. aureus A798): 2 µg/mL (≈ 3.66 µM)
MIC (E. coli ATCC25922): 4 µg/mL (≈ 7.32 µM)
MIC (K. pneumoniae T6474): 2 µg/mL (≈ 3.66 µM)
MIC (P. aeruginosa ATCC 27853): 8 µg/mL (≈ 14.6 µM)

CN1CC[C@H](Oc2cncc(-c3cncc(CNCC[C@H]4CN(c5ccc6c(n5)NC(=O)CO6)C(=O)O4)c3)n2)C1 [Example $146, 6-{(S)-5-[2-({5-[6-((S)-1-methyl-pyrrolidin-3-yloxy)-pyrazin-2-yl]-pyridin-3-ylmethyl}-amino)-ethyl]-2-oxo-oxazolidin-3-yl}-4H-pyrido[3,2-b][1,4]oxazin-3-one]
MIC (S. aureus A798): 4 µg/mL (≈ 7.32 µM)
MIC (E. coli ATCC25922): 2 µg/mL (≈ 3.66 µM)
MIC (K. pneumoniae T6474): 4 µg/mL (≈ 7.32 µM)
MIC (P. aeruginosa ATCC 27853): 4 µg/mL (≈ 7.32 µM)

CN1CC[C@H](Oc2cncc(-c3cc(CNCC[C@H]4CN(c5ccc6c(n5)NC(=O)CO6)C(=O)O4)ccn3)n2)C1 [Example $147, 6-{(S)-5-[2-({2-[6-((S)-1-methyl-pyrrolidin-3-yloxy)-pyrazin-2-yl]-pyridin-4-ylmethyl}-amino)-ethyl]-2-oxo-oxazolidin-3-yl}-4H-pyrido[3,2-b][1,4]oxazin-3-one]
MIC (S. aureus A798): 1 µg/mL (≈ 1.83 µM)
MIC (E. coli ATCC25922): 1 µg/mL (≈ 1.83 µM)
MIC (K. pneumoniae T6474): 1 µg/mL (≈ 1.83 µM)
MIC (P. aeruginosa ATCC 27853): 4 µg/mL (≈ 7.32 µM)

CN1CC[C@H](Oc2cncc(-c3ccnc(CNCC[C@H]4CN(c5ccc6c(n5)NC(=O)CO6)C(=O)O4)c3)n2)C1 [Example $148, 6-{(S)-5-[2-({4-[6-((S)-1-methyl-pyrrolidin-3-yloxy)-pyrazin-2-yl]-pyridin-2-ylmethyl}-amino)-ethyl]-2-oxo-oxazolidin-3-yl}-4H-pyrido[3,2-b][1,4]oxazin-3-one]
MIC (S. aureus A798): 1 µg/mL (≈ 1.83 µM)
MIC (E. coli ATCC25922): 1 µg/mL (≈ 1.83 µM)
MIC (K. pneumoniae T6474): 1 µg/mL (≈ 1.83 µM)
MIC (P. aeruginosa ATCC 27853): 1 µg/mL (≈ 1.83 µM)

CN1CC(Oc2cccc(-c3cccc(CNCC[C@@H]4CN(c5ccc6c(c5)NC(=O)CS6)C(=O)O4)c3)n2)C1 [Example $149, 6-[(R)-5-(2-{3-[6-(1-methyl-azetidin-3-yloxy)-pyridin-2-yl]-benzylamino}-ethyl)-2-oxo-oxazolidin-3-yl]-4H-benzo[1,4]thiazin-3-one]
MIC (S. aureus A798): 0.5 µg/mL (≈ 0.916 µM)
MIC (E. coli ATCC25922): 0.5 µg/mL (≈ 0.916 µM)
MIC (K. pneumoniae T6474): 1 µg/mL (≈ 1.83 µM)
MIC (P. aeruginosa ATCC 27853): 1 µg/mL (≈ 1.83 µM)

CN1CC[C@H](Oc2cccc(-c3cccc(CNCC[C@@H]4CN(c5ccc6c(c5)NC(=O)CS6)C(=O)O4)c3)n2)C1 [Example $150, 6-[(R)-5-(2-{3-[6-((S)-1-methyl-pyrrolidin-3-yloxy)-pyridin-2-yl]-benzylamino}-ethyl)-2-oxo-oxazolidin-3-yl]-4H-benzo[1,4]thiazin-3-one]
MIC (S. aureus A798): 2 µg/mL (≈ 3.57 µM)
MIC (E. coli ATCC25922): 2 µg/mL (≈ 3.57 µM)
MIC (K. pneumoniae T6474): 2 µg/mL (≈ 3.57 µM)
MIC (P. aeruginosa ATCC 27853): 2 µg/mL (≈ 3.57 µM)

O=C1COc2ccc(N3C[C@@H](CCNCc4cccc(-c5cccc(OC[C@@H]6CCN6)n5)c4)OC3=O)nc2N1 [Example $151, 6-[(R)-5-(2-{3-[6-((S)-1-azetidin-2-ylmethoxy)-pyridin-2-yl]-benzylamino}-ethyl)-2-oxo-oxazolidin-3-yl]-4H-pyrido[3,2-b][1,4]oxazin-3-one]
MIC (S. aureus A798): 4 µg/mL (≈ 7.54 µM)
MIC (E. coli ATCC25922): 2 µg/mL (≈ 3.77 µM)
MIC (K. pneumoniae T6474): 2 µg/mL (≈ 3.77 µM)
MIC (P. aeruginosa ATCC 27853): 1 µg/mL (≈ 1.88 µM)

O=C1CSc2ccc(N3C[C@@H](CCNCc4cccc(-c5cccc(OC[C@@H]6CCN6)n5)c4)OC3=O)cc2N1 [Example $152, 6-[(R)-5-(2-{3-[6-((S)-1-azetidin-2-ylmethoxy)-pyridin-2-yl]-benzylamino}-ethyl)-2-oxo-oxazolidin-3-yl]-4H-benzo[1,4]thiazin-3-one]
MIC (S. aureus A798): 4 µg/mL (≈ 7.33 µM)
MIC (E. coli ATCC25922): 2 µg/mL (≈ 3.67 µM)
MIC (K. pneumoniae T6474): 4 µg/mL (≈ 7.33 µM)
MIC (P. aeruginosa ATCC 27853): 1 µg/mL (≈ 1.83 µM)

CN1CC[C@H](Oc2cnnc(-c3cccc(CNCC[C@H]4CN(c5ccc6c(n5)NC(=O)CO6)C(=O)O4)c3)c2)C1 [Example $153, 6-[(S)-5-(2-{3-[5-((S)-1-methyl-pyrrolidin-3-yloxy)-pyridazin-3-yl]-benzylamino}-ethyl)-2-oxo-oxazolidin-3-yl]-4H-pyrido[3,2-b][1,4]oxazin-3-one]
MIC (S. aureus A798): 4 µg/mL (≈ 7.33 µM)
MIC (E. coli ATCC25922): 2 µg/mL (≈ 3.67 µM)
MIC (K. pneumoniae T6474): 4 µg/mL (≈ 7.33 µM)
MIC (P. aeruginosa ATCC 27853): 4 µg/mL (≈ 7.33 µM)

NCCOc1ccnc(-c2cccc(CNCC[C@H]3CN(c4ccc5c(n4)NC(=O)CO5)C(=O)O3)c2)c1 [Example $154, 6-[(S)-5-(2-{3-[4-(2-amino-ethoxy)-pyridin-2-yl]-benzylamino}-ethyl)-2-oxo-oxazolidin-3-yl]-4H-pyrido[3,2-b][1,4]oxazin-3-one]
MIC (S. aureus A798): 4 µg/mL (≈ 7.93 µM)
MIC (E. coli ATCC25922): 1 µg/mL (≈ 1.98 µM)
MIC (K. pneumoniae T6474): 4 µg/mL (≈ 7.93 µM)
MIC (P. aeruginosa ATCC 27853): 0.5 µg/mL (≈ 0.991 µM)

NCCN(CCN)CCOc1cccc(-c2cccc(CNCC[C@H]3CN(c4ccc5c(n4)NC(=O)CO5)C(=O)O3)c2)c1 [Example $155, 6-((S)-5-{2-[(3′-{2-[bis-(2-amino-ethyl)-amino]-ethoxy}-biphenyl-3-ylmethyl)-amino]-ethyl}-2-oxo-oxazolidin-3-yl)-4H-pyrido[3,2-b][1,4]oxazin-3-one]
MIC (S. aureus A798): 1 µg/mL (≈ 1.7 µM)
MIC (E. coli ATCC25922): 2 µg/mL (≈ 3.39 µM)
MIC (K. pneumoniae T6474): 16 µg/mL (≈ 27.1 µM)
MIC (P. aeruginosa ATCC 27853): 2 µg/mL (≈ 3.39 µM)
